Experimental data from patent US11219623B2, “Inflammasome inhibition for the treatment of Parkinson's disease, Alzheimer's disease and multiple sclerosis” (University of Kentucky Research Foundation, priority 2015, dated 2022).
Values after ≈ are worked out from the molar mass of the structure shown. “Also recorded” adds a separate entry of the source.

Assays:
[1] = test system: wild-type mice; experiment: pAlu-induced RPE degeneration, mouse model of dry AMD; format: in vivo; conditions: intraperitoneal 25 mg/kg twice daily
Description: Mouse studies were conducted to study treatment with NRTIs or derivatives.

[2] = test system: human LINE-1 retrotransposon; experiment: EGFP cell culture L1 retrotransposition assay in HeLa cells; format: cell-based; conditions: 7 days after transfection, flow cytometry
Description: These findings pave way for the rational re-design and improvement of nucleoside analogs as novel therapeutics. The enhanced green fluorescent protein (EGFP) cell culture L1 retrotransposition assay was performed in HeLa cells. […] Transfected cells were selected in puromycin. 7 days after transfection, cells that underwent retrotransposition (EGFP-positive) were assayed by flow cytometry. Cells were gated based on background fluorescence of plasmid JM111, which has two point mutations in L1-ORF1 that abolish retrotransposition. Data are normalized with RPS set to 1.

[3] = LogP, partition coefficient in 1-octanol; format: physicochemical; conditions: 1-octanol partition
[4] = test system: wild-type mice; experiment: Laser-induced choroidal neovascularization (CNV; wet AMD) in wild-type mice; conditions: intravitreous 0.14 nmol; day 7; N=16
[5] = Solubility in water; format: physicochemical; conditions: aqueous buffer; Water pH 7.2 at 37° C.
[6] = test system: Caspase-1; experiment: iGLuc luminescence assay of ATP-induced Caspase-1 activation in J774 iGLuc cells; format: cell-based, mouse; conditions: for Caspase-1 cleavage (luminescence): ATP 5 mM, drug 1 nM-100 μM, N=3; for reduction of inflammasome activation: ATP (5 mM), mouse J774 iGLuc cells, FIGS. 70-73
Description: Caspase-1 is the enzyme at the core of the inflammasome complex and is an important danger response signal and mediator of RPE cell death in AMD. […] Importantly, there was some difference between individual compounds in terms of the dose response curve, emphasizing the need to test each compound (with unique R group(s)) individually.
To obtain the data set forth in FIGS. 64-73, an iGLuc assay was conducted (modified from Bartok et al. iGLuc: a luciferase-based inflammasome and protease activity reporter. Nature Methods 2013; 10(2):147-54). Briefly, 100,000 iGLuc cells per well were plated in a 96 well plate overnight. The next morning, media is aspirated from the plate and replaced with 75 μL of serum free DMEM with drugs (NRTIs or modified NRTIs) for 30 min. After 30 minutes of drug exposure, 20 mM ATP (25 μL) is added for a final concentration of 5 mM. 50 μL of media from each well is collected and 50 μL of coelenterazine 4.4 μM is added to each sample, and luminescence is read immediately.

[7] = test system: Caspase-1; experiment: Alu RNA-induced Caspase-1 activation, western blot, primary human RPE cells; format: cell-based
Text: The bottom row in FIG. 5 is a vinculin loading control.

[8] = test system: Caspase-1; experiment: Iron (III) ammonium citrate-induced Caspase-1 activation, western blot, primary human RPE cells; format: cell-based; conditions: Fe(III) ammonium citrate (100 μM)
Text: Caspase-1 activation (p20 subunit) in primary human retinal pigment epithelium (RPE) cells in the presence of iron (III) ammonium citrate was studied.
Caspase-1 activation (p10 subunit) in primary human RPE cells in the presence of iron (III) ammonium citrate was studied.
Alu RNA is a toxic endogenous retroelement that accumulates in and causes death of the RPE in patients with dry AMD. […] FAC activates Caspase-1 via an Alu RNA intermediate, and induces NLRP3-dependent RPE degeneration (Gelfand et al. Cell Reports 2015). Fe(III) ammonium citrate (100 μM)-induced Caspase-1 activation in primary human RPE cells, monitored by western blotting, is reduced by TM-3TC (25 μM), d4T-ene (25 μM), 2Me-d4T (25 μM), Me-AZT (25-100 μM), and 2Me-AZT (25 μM). N=3-4.

[9] = test system: mtDNA; experiment: Relative quantity of mtDNA, quantitative PCR, primary human RPE cells; conditions: 50 μM; four days; relative to DMSO
[10] = test system: GFP-expressing lentivirus; experiment: GFP-expressing lentivirus transduction/replication assay in HeLa cells; format: cell-based; conditions: 10 μM; 72 hours; MOI 20
Description: All drugs were added at a concentration of 10 μM. Cells were imaged for GFP expression 72 hours after addition of lentivirus. GFP-positive cells per field of view were recorded. n=4-11, error bars S.E.M. Reverse transcription of lentivirus is essential for GFP expression; modified NRTIs should not block reverse transcriptase, whereas NRTIs are known to block reverse transcriptase.
The present disclosure further provides the results of additional experiments in FIG. 21-FIG. 23.

[11] = target: T1, human P2X7 receptor (Homo sapiens, UniProt Q99572); conditions: 64 μM drug; bzATP 100 μM; n=12
T1 sequence (Q99572 1-595): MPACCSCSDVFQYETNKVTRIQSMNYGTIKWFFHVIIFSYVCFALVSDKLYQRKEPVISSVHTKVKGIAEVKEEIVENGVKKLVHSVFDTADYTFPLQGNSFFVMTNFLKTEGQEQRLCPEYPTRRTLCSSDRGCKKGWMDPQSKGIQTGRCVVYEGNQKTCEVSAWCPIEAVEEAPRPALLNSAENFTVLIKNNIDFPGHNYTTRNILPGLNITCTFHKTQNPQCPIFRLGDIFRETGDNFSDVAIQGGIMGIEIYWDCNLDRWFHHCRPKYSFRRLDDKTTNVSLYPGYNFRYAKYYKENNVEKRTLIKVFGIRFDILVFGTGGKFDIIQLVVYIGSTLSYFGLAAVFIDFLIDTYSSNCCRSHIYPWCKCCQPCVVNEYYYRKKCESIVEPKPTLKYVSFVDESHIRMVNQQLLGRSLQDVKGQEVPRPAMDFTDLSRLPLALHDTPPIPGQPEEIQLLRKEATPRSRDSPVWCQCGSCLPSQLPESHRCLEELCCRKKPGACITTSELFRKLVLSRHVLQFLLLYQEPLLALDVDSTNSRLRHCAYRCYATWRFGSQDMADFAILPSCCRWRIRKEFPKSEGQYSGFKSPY

[12] = test system: wild-type mice; experiment: Alu RNA-induced RPE degeneration, mouse model of dry AMD; conditions: intraperitoneal 25 mg/kg, twice daily for 6 days
[13] = test system: IL-1 beta; experiment: MSU-induced IL-1 beta secretion from PMA-differentiated THP-1 monocytes, ELISA; format: cell-based, human; conditions: 25-1000 uM
Text: Human THP-1 monocytes were differentiated into macrophages with PMA.
To illustrate this, human THP-1 monocytes were differentiated into macrophages with PMA. Treatment with MSU increased IL-1 beta secretion compared to non-treated cells. […]

[14] = test system: Caspase-1; experiment: LPS/ATP-induced Caspase-1 activation, mouse bone marrow-derived macrophages, western blot; conditions: 100 uM; cell culture supernatants
[15] = test system: IL-18; experiment: LPS/ATP-induced IL-18 maturation, mouse bone marrow-derived macrophages; format: cell-based; conditions: 100 uM; cell culture supernatants

Compound	pAlu-induced RPE degeneration [1]	L1 retrotransposition (EGFP-positive cells) [2]	logP [3]	solubility [5]	Caspase-1 cleavage (luminescence) [6]	also measured
CCOC[C@H]1O[C@@H](n2ccc(N(CC)CC)nc2=O)CS1 (stereo in doubt) [Kamuvudine 3Et-3TC, 4-(diethylamino)-1-[2-(ethoxymethyl)-1,3-oxathiolan-5-yl]-1,2-dihydropyrimidin-2-one]	protects against RPE degeneration	some residual interference with natural L1 activity	1.16	1600 µg/mL (≈ 5.1 mM)	reduces Caspase-1 cleavage in a dose-dependent fashion	choroidal neovascularization (CNV) volume [4]: reduced choroidal neovascularization (CNV) volume
CCOC[C@H]1O[C@@H](n2cc(C)c(=O)n(CC)c2=O)C[C@@H]1N=[N+]=[N-] [Kamuvudine 2Et-AZT, 1-[(2R,4S,5 S)-4-azido-5-(ethoxymethyl)oxolan-2-yl]-3-ethyl-5-methyl-1,2,3,4-tetrahydropyrimidine-2,4-dione]	protects against RPE degeneration	no effect on L1 activity	1.17	10 µg/mL (≈ 0.0309 mM)	reduces Caspase-1 cleavage in a dose-dependent fashion	choroidal neovascularization (CNV) volume [4]: reduced choroidal neovascularization (CNV) volume
CCOC[C@@H]1C=C[C@H](n2cc(C)c(=O)n(CC)c2=O)O1 [Kamuvudine 2Et-d4T, 1-[(2R,5 S)-5-(ethoxymethyl)-2,5-dihydrofuran-2-yl]-3-ethyl-5-methyl-1,2,3,4-tetrahydropyrimidine-2,4-dione]	protects against RPE degeneration	no effect on L1 activity	1.35	90 µg/mL (≈ 0.321 mM)	reduces Caspase-1 cleavage in a dose-dependent fashion	reduction of inflammasome activation [6]: about 45%; Alu RNA induced Caspase-1 activation ([7]; 25 μM, N=3-4): reduced
COC[C@H]1O[C@@H](n2cc(C)c(=O)n(C)c2=O)C[C@@H]1N=[N+]=[N-] [Kamuvudine 2Me-AZT, 1-[(2R,4S,5S)-4-azido-5-(methoxymethyl)oxolan-2-yl]-3,5-dimethyl-1,2,3,4-tetrahydropyrimidine-2,4-dione]	restored to healthy RPE morphology/intercellular junctions	no effect on L1 activity	0.45	940 µg/mL (≈ 3.18 mM)	reduces Caspase-1 cleavage in a dose-dependent fashion	iron-induced Caspase-1 activation ([8]; 25 μM): reduced; relative quantity of mtDNA (mtDNA depletion) [9]: do not exhibit mtDNA depletion; lentivirus replication (GFP-positive cells per field) [10]: do not block lentivirus replication; Alu RNA induced Caspase-1 activation ([7]; 25 μM, N=3-4): reduced
Clc1cccc(-c2nnnn2Cc2cccnc2)c1Cl [Kamuvudine A438079]						P2X7-mediated YO-PRO-1 dye uptake induced by bzATP [11]: inhibited
COCC1O[C@@H](n2cc(C)c(=O)[nH]c2=O)CC1N=[N+]=N (stereo partly drawn) [Me-AZT, 1-[(5R)-2-(methoxymethyl)-5-(5-methyl-2,4-dioxo-1,2,3,4-tetrahydropyrimidin-1-yl)oxolan-3-yl]triaza-1,2-dien-2-ium]	restored to healthy RPE morphology/intercellular junctions	no effect on L1 activity				iron-induced Caspase-1 activation ([8]; 25-100 μM): reduced; relative quantity of mtDNA (mtDNA depletion) [9]: do not exhibit mtDNA depletion; lentivirus replication (GFP-positive cells per field) [10]: do not block lentivirus replication
CCn1c(=O)c(C)cn([C@H]2C=C[C@@H](COC)O2)c1=O [O-Me N-Et d4T, 3-ethyl-1-[(2R,5S)-5-(methoxymethyl)-2,5-dihydrofuran-2-yl]-5-methyl-1,2,3,4-tetrahydropyrimidine-2,4-dione]			0.99	1500 µg/mL (≈ 5.63 mM)	reduces Caspase-1 cleavage in a dose-dependent fashion	Alu RNA-induced RPE degeneration [12]: protects against Alu RNA-induced RPE degeneration; choroidal neovascularization (CNV) volume [4]: reduced choroidal neovascularization (CNV) volume; reduction of inflammasome activation [6]: about 55%; Alu RNA induced Caspase-1 activation ([7]; 25 μM, N=3-4): reduced
Clc1ccc(C(c2ccc(Cl)cc2)n2cc[n+](CC(OCc3ccc(Cl)cc3Cl)c3ccc(Cl)cc3Cl)c2)cc1 (centres unmarked) [calmidazolium, reference compound]						Alu RNA-induced Caspase-1 activation/cleavage ([7]; concentration not given): not inhibited
Nc1ncnc2c1ncn2[C@@H]1O[C@H](CO)C[C@H]1O [cordycepin]						IL-1beta secretion induced by MSU [13]: did not significantly affect IL-1beta secretion; Caspase-1 activation (active p20 band) induced by LPS/ATP [14]: inhibit Caspase-1 activation; IL-18 maturation induced by LPS/ATP [15]: inhibit; Alu RNA-induced Caspase-1 maturation ([7]; 50-100 uM, 24 hours after Alu administration): blocked
C=C1C=C[C@H](n2cc(C)c(=O)[nH]c2=O)O1 [d4T-ene]						iron-induced Caspase-1 activation ([8]; 25 μM): blocked iron-induced Caspase-1 activation; also recorded: reduced; Alu RNA induced Caspase-1 activation ([7]; 25-100 μM (25 and 100 μM)): blocked Alu-induced Caspase-1 activation; also recorded: reduced
Nc1ccn([C@@H]2CS[C@H](CO)O2)c(=O)n1 [reference compound]			-1.1	64000 µg/mL (≈ 279 mM)		
